The results in this text go back to patent publication US20200392158A1, “INHIBITORS OF LEUCINE RICH REPEAT KINASE 2” (GLAXOSMITHKLINE INTELLECTUAL PROPERTY DEVELOPMENT LIMITED, priority 2017, published 2020).

T1 sequence (Q5S007 with tags, fused parts or gaps R50H): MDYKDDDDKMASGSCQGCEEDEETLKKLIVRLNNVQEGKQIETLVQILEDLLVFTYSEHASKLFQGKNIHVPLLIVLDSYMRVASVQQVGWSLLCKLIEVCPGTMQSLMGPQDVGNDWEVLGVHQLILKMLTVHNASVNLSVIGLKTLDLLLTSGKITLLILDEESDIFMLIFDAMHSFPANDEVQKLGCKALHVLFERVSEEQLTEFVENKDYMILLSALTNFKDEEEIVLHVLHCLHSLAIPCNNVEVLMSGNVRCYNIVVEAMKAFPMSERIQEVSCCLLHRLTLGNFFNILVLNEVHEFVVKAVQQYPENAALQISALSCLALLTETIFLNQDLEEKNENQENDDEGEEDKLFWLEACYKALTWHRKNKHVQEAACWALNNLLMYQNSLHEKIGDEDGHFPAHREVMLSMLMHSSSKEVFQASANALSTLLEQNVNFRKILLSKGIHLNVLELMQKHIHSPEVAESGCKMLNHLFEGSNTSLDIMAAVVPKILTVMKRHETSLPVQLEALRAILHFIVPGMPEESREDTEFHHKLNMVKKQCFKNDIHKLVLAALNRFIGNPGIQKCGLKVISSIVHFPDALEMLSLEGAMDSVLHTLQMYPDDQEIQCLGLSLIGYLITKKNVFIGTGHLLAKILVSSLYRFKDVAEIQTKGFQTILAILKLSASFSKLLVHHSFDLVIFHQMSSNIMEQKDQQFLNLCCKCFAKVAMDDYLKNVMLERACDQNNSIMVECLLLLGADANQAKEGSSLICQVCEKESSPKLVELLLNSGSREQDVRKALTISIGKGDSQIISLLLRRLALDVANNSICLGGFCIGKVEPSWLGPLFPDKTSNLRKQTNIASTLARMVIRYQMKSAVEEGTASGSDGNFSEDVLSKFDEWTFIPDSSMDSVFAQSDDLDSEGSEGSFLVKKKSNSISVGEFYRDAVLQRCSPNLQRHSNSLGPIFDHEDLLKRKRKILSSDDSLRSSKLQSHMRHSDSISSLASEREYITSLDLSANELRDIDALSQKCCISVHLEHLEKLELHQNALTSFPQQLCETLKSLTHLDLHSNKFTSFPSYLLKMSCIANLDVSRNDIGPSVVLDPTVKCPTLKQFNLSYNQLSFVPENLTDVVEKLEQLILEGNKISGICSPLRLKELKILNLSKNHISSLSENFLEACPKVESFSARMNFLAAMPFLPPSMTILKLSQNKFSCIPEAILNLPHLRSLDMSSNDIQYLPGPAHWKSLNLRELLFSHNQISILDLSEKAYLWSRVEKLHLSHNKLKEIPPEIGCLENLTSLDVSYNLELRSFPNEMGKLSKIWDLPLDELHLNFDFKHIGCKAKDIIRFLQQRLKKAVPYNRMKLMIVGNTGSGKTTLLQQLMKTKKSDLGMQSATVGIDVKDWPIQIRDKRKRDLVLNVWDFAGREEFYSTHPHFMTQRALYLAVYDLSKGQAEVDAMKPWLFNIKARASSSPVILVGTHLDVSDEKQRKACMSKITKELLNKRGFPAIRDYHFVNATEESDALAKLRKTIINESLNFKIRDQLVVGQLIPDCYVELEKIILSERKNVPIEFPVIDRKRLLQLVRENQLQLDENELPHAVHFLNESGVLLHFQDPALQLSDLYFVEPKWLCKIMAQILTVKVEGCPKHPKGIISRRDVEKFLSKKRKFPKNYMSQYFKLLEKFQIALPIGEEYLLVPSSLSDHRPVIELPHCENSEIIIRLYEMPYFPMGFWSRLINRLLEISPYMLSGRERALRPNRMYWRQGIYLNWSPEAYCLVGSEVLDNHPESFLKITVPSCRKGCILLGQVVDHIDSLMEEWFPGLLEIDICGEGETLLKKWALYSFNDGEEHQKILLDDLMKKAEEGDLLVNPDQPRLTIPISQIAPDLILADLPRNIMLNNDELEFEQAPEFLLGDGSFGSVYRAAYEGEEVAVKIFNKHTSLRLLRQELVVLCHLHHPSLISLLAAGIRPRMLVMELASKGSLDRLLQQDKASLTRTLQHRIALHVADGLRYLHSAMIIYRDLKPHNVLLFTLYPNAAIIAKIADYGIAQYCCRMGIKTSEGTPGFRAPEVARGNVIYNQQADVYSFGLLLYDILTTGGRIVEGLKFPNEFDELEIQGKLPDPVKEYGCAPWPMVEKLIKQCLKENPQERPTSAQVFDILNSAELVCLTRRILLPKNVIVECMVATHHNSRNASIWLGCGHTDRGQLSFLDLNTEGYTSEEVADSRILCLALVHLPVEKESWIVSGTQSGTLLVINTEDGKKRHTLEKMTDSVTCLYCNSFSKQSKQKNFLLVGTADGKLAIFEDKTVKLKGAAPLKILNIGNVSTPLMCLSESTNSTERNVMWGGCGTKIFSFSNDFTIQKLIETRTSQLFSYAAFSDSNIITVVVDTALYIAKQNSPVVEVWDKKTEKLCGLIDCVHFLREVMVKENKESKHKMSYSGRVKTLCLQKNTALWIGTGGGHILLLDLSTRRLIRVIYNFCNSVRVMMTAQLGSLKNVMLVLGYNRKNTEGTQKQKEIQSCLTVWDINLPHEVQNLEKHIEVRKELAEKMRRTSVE

The test concerns the target T1, full length G2019 human LRRK2 (Homo sapiens, UniProt Q5S007, R50H).
T1 construct: made in house; host or cells: HEK293 6E cells transduced with BacMam virus (virus generated in Sf9 cells)
Kind of test: Full length G2019 human LRRK2 inhibition mass spectrometry assay. In kind it is biochemical. The following applies: LRRKtide to phospho-LRRKtide conversion, RapidFire MS, 2 mM ATP. As for the experimental part:
a. Full Length G2019 Human LRRK2 Inhibition Mass Spectrometry Assay
This assay for Leucine Rich Repeat Kinase 2 (LRRK2) inhibition is based on the direct measurement of the peptide ‘LRRKtide’ (LRRKtide: RLGRDKYKT*LRQIRQ and “*” refers to the site of phosphorylation.) and phosphorylated ‘LRRKtide’ using a high throughput Rapid Fire mass spectrometry assay. Inhibitors are compounds that reduce the conversion of LRRKtide to phospho-LRRKtide.
• 1) Compounds were dissolved in 100% DMSO at a concentration of 10 mM, and 11-point dose response curves generated using a 1 in 4 serial dilution in DMSO. 100 nL of this dilution series was then added to a 384 well, v bottom polypropylene plate (Greiner 781280), excluding columns 6 and 18. 100 nL of DMSO were added to column 6 to serve as the high control, while column 18 served as the low control containing assay buffer in place of the LRRK2 protein. Assay dilution gave a top final assay concentration of test compound of […] • 2) 5 μL of ‘enzyme solution’ containing 2× final assay concentration of purified recombinant Full length Flag-LRRK2 in assay buffer (50 mM Hepes, pH 7.2, 10 mM MgCl2, 150 mM NaCl, 5% glycerol, 0.0025% Triton X-100 and 1 mM DTT) were added to all wells using a Multidrop Combi dispenser (ThermoFisher Scientifiec), giving a final assay concentration of 25 nM LRRK2 enzyme (final concentration may vary depending on specific activity of different enzyme batches). • 3) 5 μL of substrate solution containing 50 μM LRRKtide peptide substrate and […] was added to all wells of the plate using a Multidrop Combi dispenser giving a final assay concentration of 25 μM LRRKtide peptide and 2 mM ATP. Test plates were then incubated for 1 hour at room temperature. (Incubation may vary depending on rate and linearity of reaction with different enzyme batches). • 4) 50 μl of 1% formic acid in laboratory grade water was added to all wells to quench the reaction, and plates were heat-sealed prior to centrifugation at 1348×g for 10 minutes. Test plates were then analysed on an Agilent RapidFire High Throughput solid phase extraction system coupled to AB Sciex API 4000 triple quadropole mass spectrometer with the following setting:
• Sip Height=2 mm, Aspirate=500 ms, Load time=3000 ms, Elution time=3000 ms, Requilibration=500 ms. • Flow rates: pump 1=1.5 mL/min, pump 2 1.25 mL/min pump 3=0.8 mL/min
Mass Spectrometer Settings: • LRRKtide Detection settings: Q1 mass 644.8 Da, Q3 mass 638.8, declustering potential 76 volts, collision energy 37 volts, CXP 34 volts. • Phospho-LRRKtide Detection settings: Q1 mass 671.4 Da, Q3 mass 638.8, Declustering potential 76 volts, Collision energy 37 volts, CXP 34 volts. • A C4 cartridge was used and running buffers were: A (aqueous) 0.1% formic acid in water B (organic) 0.1% formic acid, 80% acetonitrile, 20% water. • Collision gas: 12, Curtain gas: 25, Ion Source gas (1): 60, Ion Source gas (2): 60, Ion Spray Voltage: 5500, Temperature: 600, Interface Heater: ON. • Resolution Q1: low, Resolution Q3: low. • 5) Data were analysed using ActivityBase software (IDBS). A percent conversion from LRRKtide to Phospho-LRRKtide was calculated using the following formula:
% conversion=(Phospho-LRRKtide product peak area/(Phospho-LRRKtide product peak area+LRRKtide substrate peak area))*100 • A logistic 4 parameter curve fit was applied, using the following formula,
[formula] • Where x is the concentration of test sample, y is inhibition (%), a is the minimum, b is the Hill slope, c is the IC50 and d is the maximum. From this, the pIC50 was derived (−log IC50).
For orientation: IC50 means the concentration at which inhibition is half-maximal. `COCC1CCOc2nn(C3CCOCC3F)c(C)c2Nc2ncc(Cl)c(n2)N1` (single isomer, unassigned) [E356, 14-Chloro-5-(3-fluorooxan-4-yl)-11-(methoxymethyl)-4-methyl-8-oxa-2,5,6,12,16,17-hexaazatricyclo [11.3. 1.0^3,7]heptadeca-1(16),3,6,13(17),14-pentaene] showed an IC50 of at most 10000 nM.

As for `Cc1c2c(nn1CCN1CCC(F)C1)OCCC(C)Nc1nc(ncc1Cl)N2` (single isomer, unassigned) [E217, 14-Chloro-5-[2-(3-fluoropyrrolidin-1-yl)ethyl]-4,11-dimethyl-8-oxa-2,5,6,12,16,17-hexaazatricyclo [11.3.1.0^3,7] heptadeca-1(16),3,6,13(17),14-pentaene], the IC50 is at most 10000 nM.

For the compound `Cc1c2c(nn1C1CC(N3CCC(F)(F)C3)C1)OCCC(C)Nc1nc(ncc1Cl)N2` (single isomer, unassigned) [E316, 14-Chloro-5-[3-(3,3-difluoropyrrolidin-1-yl)cyclobutyl]-4,11-dimethyl-8-oxa-2,5,6,12,16,17-hexaazatricyclo [11.3.1.0^3,7]-heptadeca-1(16),3,6,13(17),14-pentaene], the IC50 was at most 100 nM.

The compound `Cc1c2c(nn1C1CCC(N3C[C@@H]4C[C@H]3CO4)CC1)OCCC(C)Nc1nc(ncc1Cl)N2` (single isomer, unassigned) [E105] showed an IC50 of at most 100 nM.

For `Cc1c2c(nn1C1CCOCC1)OCC(C)C(C)Nc1nc(ncc1Cl)N2` (single isomer, unassigned) [E31, 14-chloro-4,10,11-trimethyl-5-(oxan-4-yl)-8-oxa-2,5,6,12,16,17-hexaazatricyclo [11.3.1.0^3,7]heptadeca-1(16),3,6,13(17),14-pentaene], the IC50 is at most 100 nM.

Compound `Cc1c2c(nn1C1CCOCC1)OCC(F)C(C)Nc1nc(ncc1Cl)N2` (single isomer, unassigned) [E63, 14-Chloro-10-fluoro-4,11-dimethyl-5-(oxan-4-yl)-8-oxa-2,5,6,12, 16,17-hexaazatricyclo[11.3.1.0^3,7]heptadeca-1(16),3,6,13(17),14-pentaene] gave an IC50 of at most 10000 nM.

Consider `Cc1c2c(nn1C1CC3CCC(C1)O3)OCCCNc1nc(ncc1Cl)N2` (single isomer, unassigned) [E244, 14-Chloro-4-methyl-5-{8-oxabicyclo[3.2.1]octan-3-yl}-8-oxa-2,5,6,12,16,17-hexaazatricyclo[11.3.1.0^3,7] heptadeca-1(16),3,6,13(17),14-pentaene], for which the IC50 was at most 100 nM.

`Cc1cnc2nc1N[C@H](C)CCOc1nn(C3CCOCC3)c(C)c1N2` [E296, (11R)-14-Methyl-4,11-dimethyl-5-(oxan-4-yl)-8-oxa-2,5,6,12,16,17-hexaazatricyclo[11.3.1.0^3,7]heptadeca-1(16),3,6,13(17),14-pentaene] gave an IC50 of at most 10000 nM.

As for `Cc1c2c(nn1C1CCOCC1C)OCCCNc1nc(ncc1Cl)N2` (single isomer, unassigned) [E141, 14-chloro-4-methyl-5-(3-methyloxan-4-yl)-8-oxa-2,5,6,12,16,17-hexaazatricyclo[11.3.1.0^3,7]heptadeca-1(16),3,6,13(17),14-pentaene], the concentration for half-maximal inhibition (IC50) was at most 100 nM.

As to `Cc1c2c(nn1C1CCOCC1F)OCCC(C)Nc1nc(ncc1Cl)N2` (single isomer, unassigned) [E28, 14-chloro-5-(3-fluorooxan-4-yl)-4,11-dimethyl-8-oxa-2,5,6,12,16,17-hexaazatricyclo [11.3.1.0^3,7]heptadeca-1(17),3,6,13,15-pentaene], the IC50 is at most 100 nM.

As to `Cc1c2c(nn1C1CCOCC1)OCCC(C)(C)Nc1nc(ncc1Cl)N2` [E299, 14-Chloro-4,11,11-trimethyl-5-(oxan-4-yl)-8-oxa-2,5,6,12,16,17-hexaazatricyclo[11.3.1.0^3,7]heptadeca-1(16),3,6,13(17),14-pentaene], the IC50 was at most 10000 nM.

For the compound `Cc1c2c(nn1C1CCC(N3C[C@H]4C[C@@H]3CO4)CC1)OCCCNc1nc(ncc1Cl)N2` (single isomer, unassigned) [E49], the IC50 was at most 100 nM.

Regarding `Cc1c2c(nn1C1CCOC(C)C1)OCCC(C)Nc1nc(ncc1Cl)N2` (single isomer, unassigned) [E84, 14-chloro-4,11-dimethyl-5-(2-methyloxan-4-yl)-8-oxa-2,5,6,12, 16,17-hexaazatricyclo[11.3.1.0^3,7]heptadeca-1(16),3,6,13(17),14-pentaene], the IC50 was at most 100 nM.

For the compound `CCN1CCCOc2nn(C3CCOCC3)c(C)c2Nc2ncc(Cl)c1n2` [E360, 14-Chloro-12-ethyl-4-methyl-5-(oxan-4-yl)-8-oxa-2,5,6,12,16,17-hexaazatricyclo[11.3.1.0^3,7]heptadeca-1(16),3,6,13(17),14-pentaene], the IC50 is at most 10000 nM.

Consider `Cc1c2c(nn1CCN1CCOCC1)OCCC(C)Nc1nc(ncc1Cl)N2` (single isomer, unassigned) [E212, 14-Chloro-4,11-dimethyl-5-[2-(morpholin-4-yl)ethyl]-8-oxa-2,5,6,12,16,17-hexaazatricyclo[11.3.1.0^3,7] heptadeca-1(16),3,6,13(17),14-pentaene], for which the IC50 is at most 10000 nM.

Regarding `Cc1c2c(nn1CCN1C[C@H]3C[C@@H]1CO3)OCCC(C)Nc1nc(ncc1Cl)N2` (single isomer, unassigned) [E211], the IC50 was at most 10000 nM.

`Cc1c2c(nn1C1CCOCC1)OCC[C@@H](C(C)C)Nc1nc(ncc1Cl)N2` [E298, (11S)-14-Chloro-4-methyl-5-(oxan-4-yl)-11-(propan-2-yl)-8-oxa-2,5,6,12,16,17-hexaazatricyclo[11.3.1.0^3,7]heptadeca-1(16),3,6,13(17),14-pentaene] showed an IC50 of at most 100 nM.

With `Cc1c2c(nn1C1CC(C)OC(C)C1)OCCCNc1nc(ncc1Cl)N2` (single isomer, unassigned) [E201, 14-Chloro-5-(2,6-dimethyloxan-4-yl)-4-methyl-8-oxa-2,5,6,12,16,17-hexaazatricyclo[11.3.1.0^3,7]heptadeca-1(16),3,6,13(17),14-pentaene], the IC50 is at most 100 nM.

Regarding `Cc1c2c(nn1C1CCN(C3COC3)CC1(F)F)OCCCNc1nc(ncc1Cl)N2` (single isomer, unassigned) [E405, 14-Chloro-5-[3,3-difluoro-1-(oxetan-3-yl)piperidin-4-yl]-4-methyl-8-oxa-2,5,6,12,16,17-hexaazatricyclo[11.3.1.0^3,7]heptadeca-1(16),3,6,13(17),14-pentaene], the IC50 was at most 100 nM.

`C[C@@H]1CCOc2nn(C3CCN(C4COC4)CC3(F)F)c(Cl)c2Nc2ncc(Cl)c(n2)N1` (single isomer, unassigned) [E445] gave an IC50 of at most 100 nM.

In the case of `COCC1CCOc2nn(C3CCOCC3F)c(C)c2Nc2ncc(Cl)c(n2)N1` (single isomer, unassigned) [E352, 14-Chloro-5-(3-fluorooxan-4-yl)-11-(methoxymethyl)-4-methyl-8-oxa-2,5,6,12,16,17-hexaazatricyclo [11.3. 1.0^3,7]heptadeca-1(16),3,6,13(17),14-pentaene], the IC50 is at most 100 nM.

Compound `COC1CNc2nc(ncc2C(F)(F)F)Nc2c(nn(C3CCOCC3)c2C)OC1` (single isomer, unassigned) [E120, 10-methoxy-4-methyl-5-(oxan-4-yl)-14-(trifluoromethyl)-8-oxa-2,5,6,12,16,17-hexaazatricyclo[11.3.1.0^3,7] heptadeca-1(16),3,6,13(17),14-pentaene] showed an IC50 of at most 10000 nM.
